Tested on: REH cells
Assay: Chemotaxis
Assay type: cell-based
Details: 3 h migration

With SDF-1α the “Lowest concentration inducing migration” value was 10 pM and the “Concentration at peak of induced migration (chemotaxis peak)” value (bell-shaped dose-response) was 1 nM.

— PMC3155278 (ACS Medicinal Chemistry Letters, 2011)
